Test results taken from ChEMBL document CHEMBL1201862, “PubChem BioAssay data set” (2004).
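Where inhibition never reached the appropriate level, the endpoint shown equals the highest concentration tested. Otherwise, values were interpolated linearly from a five-concentration, 48-hour dose response in 96-well plates. Here, GI50 denotes the concentration required for 50% inhibition of growth.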 The source made the active and inactive calls. Cut-off read from the data, not from the text of the source: active = GI50 up to about 1.1 µM and inactive = higher.

Columns and labels:
Assay in all cases: inhibition of tumour cell growth, NCI panel, 48 h
COLO 205 = tested on: COLO 205
SK-MEL-5 = tested on: SK-MEL-5
KM12 = tested on: KM12
SK-MEL-2 = tested on: SK-MEL-2
SK-MEL-28 = tested on: SK-MEL-28
HCT-15 = tested on: HCT-15
TK-10 = tested on: TK-10
U-251 = tested on: U-251
Malme-3M = tested on: Malme-3M
HOP-92 = tested on: HOP-92
HL-60 = tested on: HL-60
UACC-62 = tested on: UACC-62
MOLT-4 = tested on: MOLT-4
SN12C = tested on: SN12C
RPMI-8226 = tested on: RPMI-8226
SK-OV-3 = tested on: SK-OV-3
LOX IMVI = tested on: LOX IMVI
UACC-257 = tested on: UACC-257
CCRF-CEM = tested on: CCRF-CEM
786-0 = tested on: 786-0

SMILES	GI50 (COLO 205)	GI50 (SK-MEL-5)	GI50 (KM12)	GI50 (SK-MEL-2)	GI50 (SK-MEL-28)	GI50 (HCT-15) [µM]	GI50 (TK-10)	GI50 (U-251)	GI50 (Malme-3M)	GI50 (HOP-92)	GI50 (HL-60)	GI50 (UACC-62)	GI50 (MOLT-4)	GI50 (SN12C)	GI50 (RPMI-8226)	GI50 (SK-OV-3)	GI50 (LOX IMVI)	GI50 (UACC-257)	GI50 (CCRF-CEM)	GI50 (786-0)
On1c(-c2ccccc2)c(-c2ccccc2N2CCCC2)c2ccccc21	> 100 µM (inactive)	> 100 µM (inactive)	> 100 µM (inactive)	> 100 µM (inactive)	> 100 µM (inactive)	> 100	> 100 µM (inactive)	> 100 µM (inactive)	> 100 µM (inactive)	> 100 µM (inactive)	> 100 µM (inactive)	> 100 µM (inactive)	> 100 µM (inactive)	> 100 µM (inactive)	> 100 µM (inactive)	> 100 µM (inactive)	> 100 µM (inactive)	> 100 µM (inactive)	> 100 µM (inactive)	> 100 µM (inactive)
CCCCCC1=CC(=O)C1(Cl)Cl	12.2 µM (inactive)	9.48 µM (inactive)	13.2 µM (inactive)	20.4 µM (inactive)	14.5 µM (inactive)	12.6	5.81 µM (inactive)	9.23 µM (inactive)	9.55 µM (inactive)	13.4 µM (inactive)	1.83 µM (inactive)	10.9 µM (inactive)	3.67 µM (inactive)	20.3 µM (inactive)	2.77 µM (inactive)	33.9 µM (inactive)	6.52 µM (inactive)	12.2 µM (inactive)	2.23 µM (inactive)	13.9 µM (inactive)
CC(=O)Oc1ccc(/C=C/C(=O)OCCOC(=O)/C=C/c2ccc(OC(C)=O)c(OC(C)=O)c2)cc1OC(C)=O	14.1 µM (inactive)	7.36 µM (inactive)	10.1 µM (inactive)	17.5 µM (inactive)	14.4 µM (inactive)	4.75	10.2 µM (inactive)	4.99 µM (inactive)	12.4 µM (inactive)	5.77 µM (inactive)	3.95 µM (inactive)	5 µM (inactive)	5.61 µM (inactive)	11.7 µM (inactive)	4.12 µM (inactive)	13.9 µM (inactive)	4.59 µM (inactive)	10.5 µM (inactive)	1.25 µM (inactive)	5.06 µM (inactive)
O=C(Nc1ccccc1)C(=O)C(C(=O)c1ccccc1)C(c1ccccc1)c1ccccc1 (stereo not given)	> 10 µM (inactive)	> 10 µM (inactive)	–	–	> 10 µM (inactive)	> 10	> 10 µM (inactive)	–	> 10 µM (inactive)	> 10 µM (inactive)	> 10 µM (inactive)	> 10 µM (inactive)	> 10 µM (inactive)	> 10 µM (inactive)	> 10 µM (inactive)	> 10 µM (inactive)	> 10 µM (inactive)	> 10 µM (inactive)	> 10 µM (inactive)	> 10 µM (inactive)
O=c1cc(N2CCCC2)[nH]c(=O)n1Cc1ccccc1	> 100 µM (inactive)	> 100 µM (inactive)	> 100 µM (inactive)	> 100 µM (inactive)	> 100 µM (inactive)	> 100	> 100 µM (inactive)	> 100 µM (inactive)	> 100 µM (inactive)	> 100 µM (inactive)	> 100 µM (inactive)	–	> 100 µM (inactive)	> 100 µM (inactive)	> 100 µM (inactive)	–	> 100 µM (inactive)	> 100 µM (inactive)	> 100 µM (inactive)	> 100 µM (inactive)
Cc1cc(S(=O)(=O)Nc2n[nH]c(-c3ccc(Cl)cn3)n2)c(S)cc1Cl	> 100 µM (inactive)	44.4 µM (inactive)	36.3 µM (inactive)	47.5 µM (inactive)	> 100 µM (inactive)	70.1	> 100 µM (inactive)	39 µM (inactive)	> 100 µM (inactive)	9.04 µM (inactive)	42 µM (inactive)	48.6 µM (inactive)	40.6 µM (inactive)	> 100 µM (inactive)	> 100 µM (inactive)	88.3 µM (inactive)	> 100 µM (inactive)	> 100 µM (inactive)	–	47.6 µM (inactive)
O=C(/C=C/c1ccccc1)c1cc(C(=O)/C=C/c2ccccc2)c(O)cc1O	> 100 µM (inactive)	69.3 µM (inactive)	–	> 100 µM (inactive)	40.5 µM (inactive)	> 100	> 100 µM (inactive)	–	> 100 µM (inactive)	> 100 µM (inactive)	> 100 µM (inactive)	49.8 µM (inactive)	> 100 µM (inactive)	> 100 µM (inactive)	65.6 µM (inactive)	> 100 µM (inactive)	> 100 µM (inactive)	> 100 µM (inactive)	–	> 100 µM (inactive)
CN1C2(c3ccccc3)c3c(-c4ccccc4)sc(-c4ccccc4)c3C1(c1ccccc1)C1C(=O)N(c3ccccc3)C(=O)C12 (stereo not given)	> 100 µM (inactive)	> 100 µM (inactive)	> 100 µM (inactive)	–	> 100 µM (inactive)	–	> 100 µM (inactive)	> 100 µM (inactive)	> 100 µM (inactive)	> 100 µM (inactive)	> 100 µM (inactive)	> 100 µM (inactive)	–	> 100 µM (inactive)	> 100 µM (inactive)	> 100 µM (inactive)	> 100 µM (inactive)	> 100 µM (inactive)	> 100 µM (inactive)	> 100 µM (inactive)
Cc1c(-c2nnc(-c3ccccc3)o2)c(=O)n(-c2ccccc2)n1C	> 100 µM (inactive)	–	> 100 µM (inactive)	> 100 µM (inactive)	> 100 µM (inactive)	> 100	> 100 µM (inactive)	> 100 µM (inactive)	> 100 µM (inactive)	> 100 µM (inactive)	> 100 µM (inactive)	> 100 µM (inactive)	> 100 µM (inactive)	> 100 µM (inactive)	> 100 µM (inactive)	> 100 µM (inactive)	> 100 µM (inactive)	> 100 µM (inactive)	> 100 µM (inactive)	> 100 µM (inactive)
COc1ccc2c(c1)c(CC(=O)O)c(C)n2C(=O)c1ccc(Cl)cc1	> 100 µM (inactive)	> 100 µM (inactive)	60.8 µM (inactive)	60.3 µM (inactive)	> 100 µM (inactive)	> 100	36.6 µM (inactive)	43.1 µM (inactive)	68.7 µM (inactive)	4.42 µM (inactive)	44.3 µM (inactive)	–	> 100 µM (inactive)	> 100 µM (inactive)	28.5 µM (inactive)	–	> 100 µM (inactive)	> 100 µM (inactive)	33.8 µM (inactive)	75.3 µM (inactive)
Cc1ccc(O)c(C2=CC(c3cccc(Cl)c3)SC(=N)N2)c1 (stereo not given)	16.9 µM (inactive)	16.1 µM (inactive)	24.9 µM (inactive)	18.2 µM (inactive)	–	18.9	22.4 µM (inactive)	18.3 µM (inactive)	24.2 µM (inactive)	10.8 µM (inactive)	30 µM (inactive)	13.7 µM (inactive)	19.1 µM (inactive)	16.9 µM (inactive)	17.7 µM (inactive)	26.4 µM (inactive)	18.6 µM (inactive)	20.6 µM (inactive)	20.1 µM (inactive)	30.8 µM (inactive)
O=c1ccn([C@H]2CSC[C@@H](CO)C2)c(=O)[nH]1	–	> 100 µM (inactive)	> 100 µM (inactive)	> 100 µM (inactive)	> 100 µM (inactive)	> 100	> 100 µM (inactive)	> 100 µM (inactive)	> 100 µM (inactive)	> 100 µM (inactive)	> 100 µM (inactive)	> 100 µM (inactive)	> 100 µM (inactive)	> 100 µM (inactive)	> 100 µM (inactive)	> 100 µM (inactive)	> 100 µM (inactive)	> 100 µM (inactive)	> 100 µM (inactive)	> 100 µM (inactive)
N#Cc1c(N)oc(-c2ccc([N+](=O)[O-])cc2)c1C#N	43.9 µM (inactive)	17 µM (inactive)	72.6 µM (inactive)	24.3 µM (inactive)	44.2 µM (inactive)	23.4	28.4 µM (inactive)	39.4 µM (inactive)	26.7 µM (inactive)	24.1 µM (inactive)	> 100 µM (inactive)	39.5 µM (inactive)	–	24.2 µM (inactive)	33.3 µM (inactive)	45.2 µM (inactive)	44.2 µM (inactive)	25.2 µM (inactive)	67.5 µM (inactive)	30.1 µM (inactive)
O=C(NNS(=O)(=O)c1ccccc1)c1csc(NC(=S)NC2CCCCC2)n1	19.3 µM (inactive)	14.4 µM (inactive)	36.3 µM (inactive)	22.3 µM (inactive)	–	41.6	35.6 µM (inactive)	33.5 µM (inactive)	35.4 µM (inactive)	55.2 µM (inactive)	69.5 µM (inactive)	23.7 µM (inactive)	36.5 µM (inactive)	20.8 µM (inactive)	44.2 µM (inactive)	42.2 µM (inactive)	17.1 µM (inactive)	22.8 µM (inactive)	39.6 µM (inactive)	15.4 µM (inactive)
CCCC(CC)c1c(O)c(O)c(C(CC)CCC)c(C(CC)CCC)c1C(CC)CCC (stereo not given)	> 10 µM (inactive)	> 10 µM (inactive)	> 10 µM (inactive)	> 10 µM (inactive)	> 10 µM (inactive)	> 10	> 10 µM (inactive)	> 10 µM (inactive)	> 10 µM (inactive)	> 10 µM (inactive)	> 10 µM (inactive)	> 10 µM (inactive)	–	> 10 µM (inactive)	> 10 µM (inactive)	> 10 µM (inactive)	> 10 µM (inactive)	> 10 µM (inactive)	> 10 µM (inactive)	> 10 µM (inactive)
